According to patent US20030064380A1, “Anergy-regulated molecules” (The Center For Blood Research, Inc., priority 2001, published 2003):

Test system: D5 Th1 T cell line
Assay: nucleic acid expression profile of D5 Th1 T cell line stimulated with 500 nM ionomycin, 1 μM CsA plus ionomycin or 20 nM PMA plus ionomycin; 11K chip, first replicate
Format: cell-based, murine
Parameters: expression level of Msa.15983.0_f_at / expression level of Msa.1669.0_f_at / expression level of Msa.18713.0_g_at / expression level of D86609_s_at / expression level of TC19211_at / expression level of TC21156_at / expression level of TC24045_at / expression level of TC30384_g_at / expression level of TC3225_at / expression level of TC38978_at / expression level of TC39080_at / expression level of TC17495_at: unit not given here
Experimental: D5 or primary T cells from NFAT1−/− or wild type DO11.10 transgenic mice were stimulated for 2, 6 or 16 hours with 500 nM ionomycin, 20 nM PMA plus 500 nM ionomycin, or 1 μM CsA plus 500 nM ionomycin. Total RNA was isolated with an RNeasy kit (QIAGEN). Ten μg of total RNA was quantitatively amplified and biotin-labeled as described (Byrne et al., (2000) “Preparation of mRNA for Expression Monitoring” Current Protocols in Molecular Biology (John Wiley & Sons, Inc.) pp. 22.22.21-22.22.13). Hybridization to GeneChips® (Affymetrix) displaying probes for 11,000 mouse genes/ESTs was performed at 40° C. overnight in a mix that included 10 μg fragmented RNA, 6× SSPE, 0.005% Triton X-100 and 100 μg/ml herring sperm DNA in a total volume of 200 μl. Chips were washed, stained with SA-PE and read using an Affymetrix GeneChip® scanner and accompanying gene expression software. Labeled bacterial RNAs of known concentration were spiked into each chip hybridization mix to generate an internal standard curve, allowing normalization between chips and conversion of raw hybridization intensity values to mRNA frequency (mRNA molecules per million).
Nucleic acid expression profiles were obtained from a T cell line at multiple time points and in various T cell states. The D5 Th1 T cell line was stimulated in three different ways: 1) ionomycin alone (e.g., causing the regulatory factor NFAT to move from the cytoplasm to the nucleus); 2) ionomycin+PMA (e.g., causing both NFAT and the transcription factor AP-1 to enter the nucleus); 3) ionomycin +cyclosporin A (CsA) (e.g., preventing NFAT from entering the nucleus in response to ionomycin). […] Cells were stimulated for 0, 2, 6, and 16 hours. RNA was isolated and analyzed on a nucleic acid chip with probes that monitor the expression of 11,000 nucleic acids located at unique addresses. The experiment was done twice (i.e., with two replicates, Rep. 1 and Rep. 2). Nucleic acid expression at the 2, 6 and 16 hour timepoints was compared to nucleic acid expression at 0 hours.
The nucleic acid expression data was stored in a computer database. A database query was used to identify all nucleic acids that were deemed “increasing” or “decreasing” in response to ionomycin (relative to the 0 hour sample) in at least one timepoint in Rep. 1, and the nucleic acids were also deemed “increasing” or “decreasing” in response to ionomycin in Rep. 2.
To test the hypothesis that NFAT in the absence of AP-1 and NFKB induced a genetic program of anergy, genes induced in D5 T cells by ionomycin stimulation alone were evaluated (FIGS. 1, 2 and 6). Samples from D5 cells stimulated with ionomycin plus CsA, which blocks anergy induction, and ionomycin plus PMA, which pharmacologically mimic complete stimulation through the TCR and CD28 were included. RNA was prepared from unstimulated D5 T cells and from cells stimulated for 2, 6 or 16 h under these three conditions, and gene transcription profiles were evaluated using Affymetrix oligonucleotide arrays (FIG. 6A).

## C[C@H](CCC(=O)O)C[C@H](C)C[C@H](C)C(=O)/C=C(\O)[C@H](C)C[C@H](C)C/C=C/[C@@H](C)[C@@H](O)[C@@H](C)[C@@H](O)C[C@@H]1CC[C@@](C)([C@H]2CC[C@@](C)([C@@H](C)O)O2)O1 [Ionomycin, ionomycin]
2 h
  expression level of D86609_s_at: 48
  expression level of ET63436_at: 149
  expression level of MIP1-B_at: 265.5
  expression level of Msa.11439.0_s_at: 37
  expression level of Msa.15983.0_f_at: 40
  expression level of Msa.1669.0_f_at: 33
  expression level of Msa.18713.0_g_at: 63
  expression level of Msa.21745.0_s_at: 9
  expression level of TC3225_at: 41
  expression level of TC14671_g_at: 15
  expression level of TC16364_at: 38
  expression level of TC16828_at: 13
  expression level of TC17132_at: 41
  expression level of TC17495_at: 10
  expression level of TC17558_at: 28
  expression level of TC18221_at: 6
  expression level of TC19211_at: 21
  expression level of TC21156_at: 34
  expression level of TC23346_s_at: 8
  expression level of TC23450_s_at: 20
  expression level of TC24045_at: 26
  expression level of TC24067_at: 8
  expression level of TC25965_at: 19
  expression level of TC27326_g_at: 40
  expression level of TC29889_at: 17
  expression level of TC30384_g_at: 77
  expression level of TC30935_at: 30
  expression level of TC30992_s_at: 14
  expression level of TC31681_at: 52
  expression level of TC33206_at: 20
  expression level of TC33833_at: 19
  expression level of TC34186_at: 19
  expression level of TC36089_at: 145
  expression level of TC36583_at: 26
  expression level of TC37631_at: 38
  expression level of TC38094_at: 13
  expression level of TC38978_at: 9
  expression level of TC39012_at: 47
  expression level of TC39080_at: 7
  expression level of TC39762_at: 17
  expression level of TC40487_g_at: 14
  expression level of TC41014_at: 9
  expression level of U44731_s_at: 80
  expression level of X67914_s_at: 59
  expression level of Z31202_s_at: 17
  expression level of aa144045_s_at: 46
  expression level of aa174748_at: 55
  expression level of c81206_rc_at: 23
  expression level of k00083_s_at: 54
  expression level of x12531_s_at: 81
6 h
  expression level of D86609_s_at: 21
  expression level of ET63436_at: 82
  expression level of MIP1-B_at: 102
  expression level of Msa.11439.0_s_at: 31
  expression level of Msa.15983.0_f_at: 33
  expression level of Msa.1669.0_f_at: 38
  expression level of Msa.18713.0_g_at: 35
  expression level of Msa.21745.0_s_at: 6
  expression level of TC3225_at: 44
  expression level of TC14671_g_at: 19
  expression level of TC16364_at: 42
  expression level of TC16828_at: 48
  expression level of TC17132_at: 54
  expression level of TC17495_at: 9
  expression level of TC17558_at: 26
  expression level of TC18221_at: 8
  expression level of TC19211_at: 17
  expression level of TC21156_at: 33
  expression level of TC23346_s_at: 11
  expression level of TC23450_s_at: 12
  expression level of TC24045_at: 21
  expression level of TC24067_at: 23
  expression level of TC25965_at: 18
  expression level of TC27326_g_at: 33
  expression level of TC29889_at: 15
  expression level of TC30384_g_at: 73
  expression level of TC30935_at: 27
  expression level of TC30992_s_at: 4
  expression level of TC31681_at: 28
  expression level of TC33206_at: 8
  expression level of TC33833_at: 8
  expression level of TC34186_at: 26
  expression level of TC36089_at: 122
  expression level of TC36583_at: 20
  expression level of TC37631_at: 27
  expression level of TC38094_at: 7
  expression level of TC38978_at: 9
  expression level of TC39012_at: 45
  expression level of TC39080_at: 14
  expression level of TC39762_at: 41
  expression level of TC40487_g_at: 12
  expression level of TC41014_at: 15
  expression level of U44731_s_at: 26
  expression level of X67914_s_at: 62
  expression level of Z31202_s_at: 30
  expression level of aa144045_s_at: 39
  expression level of aa174748_at: 23
  expression level of c81206_rc_at: 16
  expression level of k00083_s_at: 32
  expression level of x12531_s_at: 34
16 h
  expression level of D86609_s_at: 20
  expression level of ET63436_at: 86
  expression level of MIP1-B_at: 119
  expression level of Msa.11439.0_s_at: 34
  expression level of Msa.15983.0_f_at: 17
  expression level of Msa.1669.0_f_at: 35
  expression level of Msa.18713.0_g_at: 28
  expression level of Msa.21745.0_s_at: 6
  expression level of TC3225_at: 23
  expression level of TC14671_g_at: 13
  expression level of TC16364_at: 34
  expression level of TC16828_at: 30
  expression level of TC17132_at: 32
  expression level of TC17495_at: 12
  expression level of TC17558_at: 23
  expression level of TC18221_at: 11
  expression level of TC19211_at: 12
  expression level of TC21156_at: 16
  expression level of TC23346_s_at: 13
  expression level of TC23450_s_at: 13
  expression level of TC24045_at: 15
  expression level of TC24067_at: 15
  expression level of TC25965_at: 16
  expression level of TC27326_g_at: 29
  expression level of TC29889_at: 11
  expression level of TC30384_g_at: 57
  expression level of TC30935_at: 22
  expression level of TC30992_s_at: 6
  expression level of TC31681_at: 18
  expression level of TC33206_at: 6
  expression level of TC33833_at: 6
  expression level of TC34186_at: 13
  expression level of TC36089_at: 75
  expression level of TC36583_at: 18
  expression level of TC37631_at: 26
  expression level of TC38094_at: 7
  expression level of TC38978_at: 12
  expression level of TC39012_at: 35
  expression level of TC39080_at: 14
  expression level of TC39762_at: 31
  expression level of TC40487_g_at: 8
  expression level of TC41014_at: 12
  expression level of U44731_s_at: 17
  expression level of X67914_s_at: 51
  expression level of Z31202_s_at: 22
  expression level of aa144045_s_at: 33
  expression level of aa174748_at: 22
  expression level of c81206_rc_at: 15
  expression level of k00083_s_at: 35
  expression level of x12531_s_at: 97
